pIC50, pKi: −log10 of the molar value.
Key:
[1] = target: His-His-(EK)-hsBCLXL(2-197)[N197C] (Homo sapiens (Human), UniProt Q07817, N197C); assay: Fluorescence quenching assay; assay type: binding; settings: 1 nM Cy5-labelled protein, 400 nM PUMA peptide, 2 hours at 23° C.; KI determined from IC50
Source text: Fluorescence quenching assay measures the change in fluorescence intensity of C-terminally Cy5-labelled BCL-xL protein, His-His-(EK)-hsBCLXL(2-197)[N197C] (UniProtKB®
which is linked in C-terminal region to the amino acid X which corresponds to a cysteine labelled on the sulfur with Sulfo-Cyanine5 from Lumiprobe GmbH catalogue number 13380, upon binding of a C-terminally labelled peptide derived from PUMA (UniProtKB® primary accession number Q9BXH1) having an aminoacid sequence (SEQ ID:04): [[…]] which is linked in C-terminal region to the amino acid X′ where X′ is cysteine labelled on the sulfur with TQ5WS from AAT Bioquest catalogue number 2079.
The addition of a compound which binds competitively to the same site as the peptide will result in an increase in the fluorescence intensity of the protein due to displacement of the fluorescence quencher.
An 11-point serial dilution of each compound was prepared in DMSO, the final buffer conditions were 10 mM 4-(2-hydroxyethyl)-1-piperazineethanesulfonic acid [HEPES], 150 mM NaCl, 0.05% Tween 20, pH 7.4 and 5% DMSO. The final protein concentration in the assay was 1 nM with the peptide present at 400 nM. The experiments were incubated for 2 hours at 23° C. before fluorescence intensity was measured on a Biotek SynergyNeo plate reader (Excitation 620 nm, emission 680 nm). […] The K1 values were determined from the IC50 values according to Cer et al, Nucleic Acids Res, 2009, Jul. 1; 37 (WebServer issue): W441-W445.

MOLT-4 cells = assay: MOLT-4 cell viability using MTT assay; assay type: cell-based; settings: Homo sapiens, MOLT-4, 48 h, 48 h exposure
Procedure: MTT colorimetric assay is based on the mitochondrial reduction of tetrazolium salt by living cells.
Cells were cultured at 37° C. in a humidified atmosphere containing 5% CO2. […] At the end of incubation time, 15 μL of MTT solution (5 mg/ml) were added per well and the cells were incubated for another 4 h. […] IC50s were calculated using standard four-parametric curve fitting.

His-His-(EK)-hsBCLXL(2-197)[N197C], sequence (Q07817 2-197 N197C): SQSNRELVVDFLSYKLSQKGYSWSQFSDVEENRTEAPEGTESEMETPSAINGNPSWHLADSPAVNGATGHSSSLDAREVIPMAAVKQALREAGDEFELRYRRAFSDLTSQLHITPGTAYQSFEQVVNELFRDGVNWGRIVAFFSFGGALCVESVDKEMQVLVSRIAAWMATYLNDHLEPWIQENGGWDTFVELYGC

Row | SMILES | pKi [1] | pIC50 (MOLT-4 cells)
1 | Cc1c(Nc2nc3ccccc3s2)nnc2c1CCCN2c1ccc(-c2cnn(CC34CC5(C)CC(C)(C3)CC(OCCN3CCN(C(C)C)CC3)(C5)C4)c2C)c(C(=O)O)n1 [Example 146, 6-[3-(1,3-benzothiazol-2-ylamino)-4-methyl-6,7-dihydro-5H-pyrido[2,3-c]pyridazin-8-yl]-3-[1-[[3-[2-(4-isopropylpiperazin-1-yl)ethoxy]-5,7-dimethyl-1-adamantyl]methyl]-5-methyl-pyrazol-4-yl]pyridine-2-carboxylic acid] | 11.49 | 9.61
2 | Cc1c(Nc2nc3ccccc3s2)nnc2c1CCCN2c1nc(C(=O)O)c(CCCOc2ccc(C#CC(C)(C)N(C)C)cc2F)s1 [Example 83, 2-[3-(1,3-Benzothiazol-2-ylamino)-4-methyl-6,7-dihydro-5H-pyrido[2,3-c]pyridazin-8-yl]-5-[3-[4-[3-(dimethylamino)-3-methyl-but-1-ynyl]-2-fluoro-phenoxy]propyl]thiazole-4-carboxylic acid] | 10.59 | 9.24
3 | Cc1c(Nc2nc3ccccc3s2)nnc2c1CCCN2c1nc(C(=O)O)c(CCCOc2ccc(C#CCNCC[C@@H](O)CO)cc2F)s1 [Example 131, 2-[3-(1,3-benzothiazol-2-ylamino)-4-methyl-6,7-dihydro-5H-pyrido[2,3-c]pyridazin-8-yl]-5-[3-[4-[3-[[(3R)-3,4-dihydroxybutyl]amino]prop-1-ynyl]-2-fluoro-phenoxy]propyl]thiazole-4-carboxylic acid] | 11.35 | 9.56
4 | Cc1c(Nc2nc3ccccc3s2)nnc2c1CCCN2c1nc(C(=O)O)c(CCCOc2ccc(C#CC3(N(C)C)CCCCC3)cc2F)s1 [Example 84, 2-[3-(1,3-Benzothiazol-2-ylamino)-4-methyl-6,7-dihydro-5H-pyrido[2,3-c]pyridazin-8-yl]-5-[3-[4-[2-[1-(dimethylamino)cyclohexyl]ethynyl]-2-fluoro-phenoxy]propyl]thiazole-4-carboxylic acid] | 10.28 | 8.74
5 | Cc1c(Nc2nc3ccccc3s2)nnc2c1CCCN2c1nc(C(=O)O)c(CCCOc2ccc(CCCN3CCCC3)cc2F)s1 [Example 69, 2-[3-(1,3-Benzothiazol-2-ylamino)-4-methyl-6,7-dihydro-5H-pyrido[2,3-c]pyridazin-8-yl]-5-[3-[2-fluoro-4-(3-pyrrolidin-1-ylpropyl)phenoxy]propyl]thiazole-4-carboxylic acid] | 11.43 | 8.39
6 | CCNC(C)(C)C#Cc1ccc(OCCCc2sc(N3CCCc4c3nnc(Nc3nc5ccccc5s3)c4C)nc2C(=O)O)c(F)c1 [Example 102, 2-{3-[(1,3-benzothiazol-2-yl)amino]-4-methyl-6,7-dihydropyrido[2,3-c]pyridazin-8(5H)-yl}-5-(3-{4-[3-(ethylamino)-3-methylbut-1-yn-1-yl]-2-fluorophenoxy}propyl)-1,3-thiazole-4-carboxylic acid] | 11.35 | 9.57
7 | Cc1c(Nc2nc3ccccc3s2)nnc2c1CCCN2c1nc(C(=O)O)c(CCCOc2ccc(C#CCN(C)C)cc2)s1 [Example 141, 2-[3-(1,3-benzothiazol-2-ylamino)-4-methyl-6,7-dihydro-5H-pyrido[2,3-c]pyridazin-8-yl]-5-[3-[4-[3-(dimethylamino)prop-1-ynyl]phenoxy]propyl]thiazole-4-carboxylic acid] | 11.07 | 10.01

Compounds with a higher pKi [1], results first:

Row | pKi [1] | pIC50 (MOLT-4 cells) | SMILES
8 | 11.54 | 10.04 | Cc1ccc2sc(Nc3nnc4c(c3C)CCCN4c3ccc(-c4cnn(CC56CC7(C)CC(C)(C5)CC(OCCN5CCCC5)(C7)C6)c4C)c(C(=O)O)n3)nc2c1 [Example 179, 3-[1-[[3,5-dimethyl-7-(2-pyrrolidin-1-ylethoxy)-1-adamantyl]methyl]-5-methyl-pyrazol-4-yl]-6-[4-methyl-3-[(5-methyl-1,3-benzothiazol-2-yl)amino]-6,7-dihydro-5H-pyrido[2,3-c]pyridazin-8-yl]pyridine-2-carboxylic acid]
9 | 11.57 | 9.10 | Cc1c(Nc2nc3ccccc3s2)nnc2c1CCCN2c1ccc(-c2cnn(CC34CC5(C)CC(C)(CC(CCCNCCCO)(C5)C3)C4)c2C)c(C(=O)O)n1 [Example 170, 6-[3-(1,3-benzothiazol-2-ylamino)-4-methyl-6,7-dihydro-5H-pyrido[2,3-c]pyridazin-8-yl]-3-[1-[[3-[3-(3-hydroxypropylamino)propyl]-5,7-dimethyl-1-adamantyl]methyl]-5-methyl-pyrazol-4-yl]pyridine-2-carboxylic acid]
10 | 11.66 | 9.34 | Cc1c(Nc2nc3ccccc3s2)nnc2c1CCCN2c1nc(C(=O)O)c(CCCOc2ccc(C34CC(CN(C)C)(C3)C4)cc2F)s1 [Example 90, 2-[3-(1,3-Benzothiazol-2-ylamino)-4-methyl-6,7-dihydro-5H-pyrido[2,3-c]pyridazin-8-yl]-5-[3-[4-[1-[(dimethylamino)methyl]-3-bicyclo[1.1.1]pentanyl]-2-fluoro-phenoxy]propyl]thiazole-4-carboxylic acid]
11 | 11.66 | 8.08 | Cc1c(Nc2nc3ccccc3s2)nnc2c1CCCN2c1ccc(-c2cnn(CC34CC5(C)CC(C)(C3)CC(OCCNCCS(=O)(=O)O)(C5)C4)c2C)c(C(=O)O)n1 [Example 96, 6-{3-[(1,3-benzothiazol-2-yl)amino]-4-methyl-6,7-dihydropyrido[2,3-c]pyridazin-8(5H)-yl}-3-{1-[(3,5-dimethyl-7-{2-[(2-sulfoethyl)amino]ethoxy}adamantan-1-yl)methyl]-5-methyl-1H-pyrazol-4-yl}pyridine-2-carboxylic acid]
12 | 11.74 | 9.13 | Cc1c(Nc2nc3ccccc3s2)nnc2c1CCCN2c1nc(C(=O)O)c(CCCOc2ccc(C#CCNCCN(C)C)cc2F)s1 [Example 76, 2-[3-(1,3-Benzothiazol-2-ylamino)-4-methyl-6,7-dihydro-5H-pyrido[2,3-c]pyridazin-8-yl]-5-[3-[4-[3-[2-(dimethylamino)ethylamino]prop-1-ynyl]-2-fluoro-phenoxy]propyl]thiazole-4-carboxylic acid]
13 | 11.82 | 10.08 | COCCCN(C)CCOC12CC3(C)CC(C)(CC(Cn4ncc(-c5ccc(N6CCCc7c6nnc(Nc6nc8ccccc8s6)c7C)nc5C(=O)O)c4C)(C3)C1)C2 [Example 151, 6-[3-(1,3-benzothiazol-2-ylamino)-4-methyl-6,7-dihydro-5H-pyrido[2,3-c]pyridazin-8-yl]-3-[1-[[3-[2-[3-methoxypropyl(methyl)amino]ethoxy]-5,7-dimethyl-1-adamantyl]methyl]-5-methyl-pyrazol-4-yl]pyridine-2-carboxylic acid]
14 | 11.85 | 7.88 | Cc1c(Nc2nc3ccccc3s2)nnc2c1CCCN2c1ccc(-c2cnn(CC34CC5(C)CC(C)(C3)CC(OCCN3CCNCC3)(C5)C4)c2C)c(C(=O)O)n1 [Example 144, 6-[3-(1,3-benzothiazol-2-ylamino)-4-methyl-6,7-dihydro-5H-pyrido[2,3-c]pyridazin-8-yl]-3-[1-[[3,5-dimethyl-7-(2-piperazin-1-ylethoxy)-1-adamantyl]methyl]-5-methyl-pyrazol-4-yl]pyridine-2-carboxylic acid]
